Source: article PMC7096528, “Crystal structure of pathogenic Staphylococcus aureus lipase complex with the anti-obesity drug orlistat” (Scientific Reports, 2020)

Key:
[1] = molecular target: T1, Staphylococcus aureus lipase (SAL, glycerol ester hydrolase) (Staphylococcus aureus, UniProt A0A0U1MWF9); assay: co-crystal structure at […] Å; IC50 from purified-enzyme p-nitrophenyl butyrate hydrolysis assay; assay type: biochemical
T1 construct: gene lip; mature form containing 394 amino acid residues (recombinant, His-tagged; residues 4–385 determined in the native structure)

[2] = molecular target: the molecule itself; assay: SEC; Superdex 200 Increase 10/300 GL, 10 mg/mL SAL injected at 20 °C, 50 mM Tris-HCl pH 7.5, 0.2 M NaCl, 0.5 ml/min, BSA as standard for calibration

T1 sequence (A0A0U1MWF9 entry or part of it): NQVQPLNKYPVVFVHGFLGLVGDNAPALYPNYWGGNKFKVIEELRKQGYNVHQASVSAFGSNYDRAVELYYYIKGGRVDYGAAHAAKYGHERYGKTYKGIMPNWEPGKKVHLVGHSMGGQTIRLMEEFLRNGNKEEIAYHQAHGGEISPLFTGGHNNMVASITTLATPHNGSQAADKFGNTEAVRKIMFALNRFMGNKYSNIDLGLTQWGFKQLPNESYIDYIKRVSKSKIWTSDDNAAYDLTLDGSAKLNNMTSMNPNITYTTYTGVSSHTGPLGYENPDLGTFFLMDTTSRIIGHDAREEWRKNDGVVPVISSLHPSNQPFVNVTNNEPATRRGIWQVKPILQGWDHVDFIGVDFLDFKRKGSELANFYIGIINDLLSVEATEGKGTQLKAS

CCCCCCCCCCC[C@@H](C[C@@H]1OC(=O)[C@H]1CCCCCC)OC(=O)[C@H](CC(C)C)NC=O [orlistat]
IC50 [1]: 2400 nM

B1: Staphylococcus aureus lipase (SAL), native, mature form (enzyme)
chain: ANQVQPLNKYPVVFVHGFLGLVGDNAPALYPNYWGGNKFKVIEELRKQGYNVHQASVSAFGSNYDRAVELYYYIKGGRVDYGAAHAAKYGHERYGKTYKGIMPNWEPGKKVHLVGHSMGGQTIRLMEEFLRNGNKEEIAYHKAHGGEISPLFTGGHNNMVASITTLATPHNGSQAADKFGNTEAVRKIMFALNRFMGNKYSNIDLGLTQWGFKQLPNESYIDYIKRVSKSKIWTSDDNAAYDLTLDGSAKLNNMTSMNPNITYTTYTGVSSHTGPLGYENPDLGTFFLMATTSRIIGHDAREEWRKNDGVVPVISSLHPSNQPFVNVTNDEPATRRGIWQVKPIIQGWDHVDFIGVDFLDFKRKGAELANFYTGIINDLLRVEATESKGTQLKAS
notes: Staphylococcus aureus lipase (glycerol ester hydrolase), mature form of 394 residues processed from the prepolypeptide of 690 residues; numbers count on: the mature protein; Residues 4-385 are visible in the crystal; The pCold II vector is surmised to add the His tag at the N-terminus; also called SA lipase; glycerol ester hydrolase; source: E. coli, purified (three-step chromatography, …)
stoichiometry N [2]: 2
